Legend:
Assay type in all cases: biochemical
[1] = biological target: T1, Recombinant human cathepsin K (Homo sapiens, UniProt P43235); experiment: Kinetic measurements, hydrolysis of the fluorogenic substrate Z-FR↓AMC (general modifier mechanism); set-up: key to α (coefficient, effect of modifier on the affinity for the substrate) / β (coefficient, effect of modifier on the catalytic rate): dimensionless coefficients multiplying KS (α) and kcat (β); conditions: for Z-FRAMC: geometric mean of residual activities (vA): at 0.1×Km and 10×Km substrate, modifier 10×KA, calculated with Equation 1 from α and β of Table 3, unmodified enzyme = 1.00; for Kinetic mechanism of modification / α (coefficient, effect of modifier on the affinity for the substrate) / β (coefficient, effect of modifier on the catalytic rate) / Kd: substrate Z-FR↓AMC; for Kinetic mechanism of modification: from combinations of α and β; for α (coefficient, effect of modifier on the affinity for the substrate) / β (coefficient, effect of modifier on the catalytic rate) / Kd: pH 5.50, 25°C, 0.5 nM enzyme; for Kd: read-out: K A (equilibrium dissociation constant of the EA complex)
T1 construct: made in house
T1 sequence (P43235 115-329): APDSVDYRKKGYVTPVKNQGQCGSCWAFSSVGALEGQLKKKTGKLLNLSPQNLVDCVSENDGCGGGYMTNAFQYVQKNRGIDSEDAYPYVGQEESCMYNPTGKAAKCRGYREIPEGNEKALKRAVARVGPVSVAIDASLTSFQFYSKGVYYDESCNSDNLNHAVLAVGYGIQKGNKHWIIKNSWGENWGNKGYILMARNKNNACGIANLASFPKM
Description: All modifiers were tested for their effect on the hydrolysis of the low molecular mass synthetic substrate Z-FR↓AMC. Since all progress curves were linear from the beginning of the reaction, initial velocities were calculated from the slopes by linear regression. […] The basic mechanism considered for the analysis of the interactions was the general modifier mechanism shown in Figure 2, in which the effect of modifier is determined by the values of the coefficients α and β that multiply the kinetic parameters K S, K A (α) and k cat (β). In the thermodynamic box embodied in Figure 2, the reciprocal of the coefficient α represents the allosteric coupling constant that characterizes energy linkage between the modifier and the substrate, while a […] represents the effect exerted by the modifier on catalysis. The specific velocity plot was used for the primary screening of the kinetic behavior of the modifiers (Equation 2), as it allows an immediate judgment of the type of interaction and to gather preliminary estimates of the coefficients α and β, as well as of the dissociation constant of the modifier. Refinement was then performed by fitting the rate Equation 1 to data.
Figure 3 Kinetic mechanisms of the identified modifiers. All compounds were characterized by a combination of specific velocity plots (upper panels) and titration curves recorded at fixed substrate concentrations (lower panels). All experiments were performed at 25±1°C in 100 mM sodium acetate buffer pH 5.50 containing 1 mM EDTA and 2.5 mM DTT using the fluorogenic substrate Z-FR↓AMC and at a final enzyme concentration of 0.5 nM.
All kinetic measurements were performed in 100 mM sodium acetate buffer pH 5.50 containing 1 mM EDTA and 2.5 mM dithiothreitol (DTT) in single-use acrylic cuvettes (1×1 cm) thermostatted at 25±1°C with magnetic stirring. The hydrolysis of Z-FR↓AMC was followed fluorometrically at λex 383 nm and λem 455 nm. All tested modifiers were analyzed spectroscopically to determine their absorption properties under the conditions used in the assays. When necessary, appropriate corrections were made to the calculated reaction rates to take into account the inner filter effect.
The effects of the modifiers on enzymatic activity were analyzed with the general modifier mechanism which describes the interaction between enzyme (E), substrate (S) and modifier (A), as shown in Figure 2. Assuming that binding of A to E and ES is at quasi-equilibrium and that steady-state conditions are established in the fluxes around ES and ESA (i.e. the catalytic steps), the reaction rate for the mechanism in Figure 2 is defined by Equation 1: [drawing 2] (1) where v 0 is the reaction rate in the absence of modifier, K A is the equilibrium dissociation constant of the EA complex, α and β are dimensionless coefficients and σ = [S]/K m, approximated to [S]/K s. To determine the mechanism of interaction, plot the kinetic data and calculate preliminary values of the interaction parameters, the specific velocity plot was used. For this purpose, Equation 1 is rewritten as:
The plot of v 0/v A versus σ/(1+σ) produces straight lines with intersection points at v 0/v A = 1, regardless of the interaction mechanism. The parameters α, β and K A are determined by replotting the extrapolated values of the straight lines at σ/(1+σ) = 0 (a) and σ/(1+σ) = 1 (b) versus 1/[A] in the form: [drawing 4] (3) [drawing 5] (4)

[2] = biological target: T1, Recombinant human cathepsin K; experiment: Thermal stability of cathepsin K at pH 7.4 in the presence of modifiers; conditions: for stability: ln(sf), sf = ratio of half-lives in the presence and absence of modifier: 37 °C and pH 7.4
Description: Cathepsin K was incubated at 37°C in 50 mM Hepes buffer pH 7.40 containing 1 mM EDTA and 5 mM DTT in the presence or absence of each modifier. The final enzyme concentration was 0.2 µM and final compounds concentrations were 2 mM, except compound 2, which was used at a concentration of 1 mM. All experiments were performed in Eppendorf Protein LoBind Tubes to minimize the adsorption of proteins on tube walls. Aliquots were withdrawn from the reaction mixtures at regular time intervals and their residual activity measured using the substrate Z-FR↓AMC (5 µM final concentration). Inactivation curves had exponential profiles that were fitted with the mathematical model for one-phase exponential decay to determine the half-life of the enzyme in each reaction mixture.

[3] = biological target: T1, Recombinant human cathepsin K; experiment: Collagenolytic assays (calf skin collagen, SDS-PAGE); set-up: key to collagen: qualitative value: qualitative values of 1 and 0 were used to signify inhibition and lack thereof, respectively; qualitative values of 1 and 0 were used to signify inhibition and lack thereof, respectively; a value of -1 was used to describe the concentration-dependent roles of glycosaminoglycans; conditions: for collagen: qualitative value: activity modification matrix
Description: The use of synthetic substrates is practical for the determination of the mechanisms of modification. […] Therefore, all modifiers were also tested with two macromolecular substrates, calf skin collagen and azocasein. The collagenolytic activity was tested quantitatively by following the fragmentation of the characteristic type I collagen pattern into smaller products on SDS-PAGE after incubation of the samples with cathepsin K in the presence and absence of modifiers.
Soluble calf skin collagen (Worthington Biochemical Corporation, USA) was diluted in 100 mM sodium acetate buffer pH 5.50 containing 1 mM EDTA and 5 mM DTT to a final concentration of 0.5 mg/ml. Experiments were started by addition of cathepsin K (final enzyme concentration 0.6 µM) to the reaction mixture containing collagen and increasing concentrations of modifier. All assays were performed at 28°C with shaking on an Eppendorf Thermomixer Comfort. Samples were incubated for 2 hours and the reactions then blocked by addition of E-64 to a final concentration of 1 µM. 10 µg of digested collagen were analyzed by SDS-PAGE on 8% polyacrylamide gels and protein bands visualized by Coomassie Brilliant Blue R-250 staining.

[4] = biological target: T1, Recombinant human cathepsin K; experiment: Azocasein degradation assays; conditions: for Effect on azocasein degradation / remaining activity: compounds up to 2 mM (compound 2: 1 mM); for remaining activity: pH 5.5, substrate azocasein 3 mg/ml, 0.1 µM cathepsin K, 30 min 37°C, pH 5.50, read-out: Residual activity; for azocasein: fraction of residual enzyme activity: value of 1 equals the activity of unmodified enzyme, activity modification matrix; for IC 50 relative to K A: azocasein IC50 versus K A with Z-FR↓AMC; for IC50: azocasein degradation
Source text: Figure 4 Effect of modifiers on the degradation of macromolecular substrates. (A) Effect of increasing concentrations of compounds 1 and 2 on the degradation of calf skin collagen. Molecular mass standards are given in kDa and positions of α, β and γ chains of intact collagen are marked by arrows. (B) Effect of modifiers on azocasein degradation. (C) Effect of glycosaminoglycans and clusterin on azocasein degradation. Two different concentrations of each glycosaminoglycan were used in the experiments (10 µg/ml and 200 µg/ml). Error bars in panels B and C represent the SEM of three experiments. All experiments were performed in 100 mM sodium acetate buffer pH 5.50 containing 1 mM EDTA and 5 mM DTT, as described in detail in the Materials and Methods section. Abbreviations: CPD – compound, CS – chondroitin sulfate, DS – dermatan sulfate, HP – heparin.
Azocasein (Sigma-Aldrich, USA) was dissolved in 100 mM sodium acetate buffer pH 5.50 containing 1 mM EDTA and 5 mM DTT at a concentration of 3 mg/ml. Samples were incubated with 0.1 µM cathepsin K for 30 min at 37°C in the presence of each compound. […] Reactions were stopped by addition of trichloroacetic acid (final concentration 5% v/v), centrifuged, clear supernatants mixed with 0.5 M NaOH and the concentrations of solubilized peptides determined by measuring the absorbance at 440 nm. All experiments were performed in triplicates and appropriate blanks were run to take into account the absorption of azocasein and compounds alone. IC 50 values were determined as described previously.

[5] = substrate calf skin collagen 0.5 mg/ml, 0.6 µM cathepsin K, 2 hours 28°C, pH 5.50, estimated

Compound | Z-FRAMC: geometric mean of residual activities (vA) [1] | α (coefficient, effect of modifier on the affinity for the substrate) [1] | β (coefficient, effect of modifier on the catalytic rate) [1] | Kd [1] [µM] | stability: ln(sf), sf = ratio of half-lives in the presence and absence of modifier [2] | collagen: qualitative value [3] | IC50 [3, 5] | Effect on azocasein degradation [4] | remaining activity [4] [%] | azocasein: fraction of residual enzyme activity [4] | IC 50 relative to K A [4] | IC50 [4] [µM] | Kinetic mechanism of modification [1] | other results
O=C(O)C(Cc1ccccc1-c1ccccc1)C(=O)O [Compound 4, (2-Biphenylylmethyl) malonic acid] | 0.70 | 5.6±1.2 | 1.5±0.3 | 100 ± 40 | 0.41 | 0 | n.i. | – | 90 ± 3 | – | – | – | hyperbolic mixed modifiers with a dual behavior as inhibitors or activators depending on substrate concentration | α (coefficient, effect of modifier on the affinity for the substrate) ([1]; listed as compound 4): > 1; β (coefficient, effect of modifier on the catalytic rate) ([1]; listed as compound 4): > 1
NCC1CCN(CCc2ccccc2)CC1 [Compound 6, 1-[1-(2-Phenylethyl)-4-piperidinyl]-methanamine] | 0.65 | 3.0±0.2 | 1 | 270 ± 50 | 0.18 | 0 | n.i. | – | 77 ± 8 | 0.77 | about 4 fold | 1100 ± 240 | hyperbolic competitive inhibitor | –
Nc1cc(C(=O)O)ccc1NCC1CCCO1 (stereo not drawn) [Compound 1, 3-Amino-4-[(tetrahydro-2-furanylmethyl)amino] benzoic acid] | 0.37 | – | 0.55±0.25 | 190 ± 20 | 0.74 | 1 | – | – | 74 ± 9 | 0.74 | about 4 fold | 730 ± 190 | – | Increase of stability (half-life) of cathepsin K ([2]; pH 7.4, 37°C, versus enzyme only): about 2 fold; Effect on degradation of calf skin collagen ([3]; SDS-PAGE, increasing concentrations of modifier): concentration-dependent inhibitory effect; IC50 ([3]; degradation of calf skin collagen, read-out: IC 50 (estimated)): ~1000 µM; IC50 ([3]; substrate calf skin collagen 0.5 mg/ml, 0.6 µM cathepsin K, 2 hours 28°C, pH 5.50, estimated, read-out: IC 50): 1000 µM
O=C(Nc1ccc(C(=O)O)c(O)c1)c1ccccc1 [Compound 3, N-Benzoyl-p-aminosalicylic acid] | 0.42 | 1.7±0.5 | – | 110 ± 20 | 0.26 | 0 | n.i. | – | 86 ± 4 | – | – | – | – | –

More lines, main results first:

Z-FRAMC: geometric mean of residual activities (vA) [1] | α (coefficient, effect of modifier on the affinity for the substrate) [1] | β (coefficient, effect of modifier on the catalytic rate) [1] | Kd [1] [µM] | stability: ln(sf), sf = ratio of half-lives in the presence and absence of modifier [2] | collagen: qualitative value [3] | IC50 [3, 5] | Effect on azocasein degradation [4] | remaining activity [4] [%] | azocasein: fraction of residual enzyme activity [4] | IC 50 relative to K A [4] | IC50 [4] [µM] | Compound | Kinetic mechanism of modification [1] | other results
0.48 | 0.19±0.03 | 0.19±0.03 | 290 ± 20 | 0.47 | 0 | n.i. | ineffective | 104 ± 5 | 1.01 | – | – | O=C(O)c1ccccc1C(=O)Nc1cccc([N+](=O)[O-])c1 [Compound 7, 2-[(3-Nitrophenyl)carbamoyl]benzoic acid] | hyperbolic mixed inhibitors with uncompetitive character | α (coefficient, effect of modifier on the affinity for the substrate) ([1]; listed as compound 7): < 1; β (coefficient, effect of modifier on the catalytic rate) ([1]; listed as compound 7): < 1
0.60 | 0.31±0.06 | 0.31±0.06 | 1100 ± 200 | 0.02 | 0 | n.i. | ineffective | 101 ± 3 | 1.04 | – | – | COC(=O)CNC1CC(=O)N(c2ccc(OC)cc2)C1=O (stereo not drawn) [Compound 8, Methyl N-[1-(4-methoxyphenyl)-2,5-dioxopyrrolidin-3-yl]glycinate] | hyperbolic mixed inhibitors with uncompetitive character | α (coefficient, effect of modifier on the affinity for the substrate) ([1]; listed as compound 8): < 1; β (coefficient, effect of modifier on the catalytic rate) ([1]; listed as compound 8): < 1

From PMC4153677, “Probing the Activity Modification Space of the Cysteine Peptidase Cathepsin K with Novel Allosteric Modifiers” (PLoS ONE, 2014)
